The nature of data set [1]: Heat stability of solid forms (Experimental Example 1). The data set is classed as physicochemical. As to conditions: solid form of 1-(cyclohexyloxycarbonyloxy)ethyl ester. An excerpt: 1-(Cyclohexyloxycarbonyloxy)ethyl 2-ethoxy-1-[[2′-(1 H-tetrazol-5-yl)biphenyl-4-yl]methyl]benzimidazole-7-carboxylate is usually purified by column chromatography on silica gel and the eluted fraction is concentrated to dryness to give amorphous powders. […] For solving this problem, the present inventors made extensive experiments on crystallization of the subject compound and discovered C-type crystalline form. […] The C-type crystal of the title compound has approximately the following lattice spacings: […]

For data set [2], the target named is T1, A II receptor (Bos taurus, UniProt P25104).
T1 construct: An A II receptor membrane fraction was prepared from bovine adrenal cortex; from tissue; host or cells: bovine adrenal cortex membrane fraction
T1 sequence (P25104 1-359): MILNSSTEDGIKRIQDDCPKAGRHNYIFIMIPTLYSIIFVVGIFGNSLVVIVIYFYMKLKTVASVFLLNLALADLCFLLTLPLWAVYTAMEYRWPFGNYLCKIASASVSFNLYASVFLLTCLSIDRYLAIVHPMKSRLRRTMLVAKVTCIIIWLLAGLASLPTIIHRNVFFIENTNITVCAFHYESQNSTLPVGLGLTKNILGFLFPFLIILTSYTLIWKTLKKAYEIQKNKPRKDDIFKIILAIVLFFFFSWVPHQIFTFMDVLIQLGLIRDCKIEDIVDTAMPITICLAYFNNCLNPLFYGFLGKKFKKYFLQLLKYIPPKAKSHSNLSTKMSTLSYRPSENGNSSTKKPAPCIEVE
Put plainly: Inhibition of binding of angiotensin II to angiotensin receptor (radioreceptor assay). On the set-up: species or system bovine; Radioreceptor Assay 1 × 10^−7M / Radioreceptor Assay 1 × 10^−6M: unit not given here. The method, then: An experiment of inhibition on the binding of angiotensin II (A II) to A II receptor was conducted by modifying the method of Douglas et al. [Endocrinology, 102, 685-696 (1978)]. An A II receptor membrane fraction was prepared from bovine adrenal cortex.
The compound of the present invention (10 ^−6M or 10^−7M) and ^125I-angiotensin II (^125I-A II) (1.85 kBq/50 μl ) were added to the receptor membrane fraction, and the mixture was incubated at room temperature for one hour. The receptor-bound and free ^125I-A II were separated through a filter (Whatman GF/B filter), and the radioactivity of ^125I-A II bound to the receptor was measured.

Data set [3] relates to A II-induced pressor action. The experiment in a line: Inhibitory effect on pressor action of A II after oral administration. In kind it is in vivo, Jcl: SD rats. The method, then: Jcl: SD rats (9 week old, male) were employed. On the previous day of the experiment, these animals were applied with cannulation into the femoral artery and vein under anesthesia with pentobarbital Na. The animals were fasted but allowed to access freely to drinking water until the experiment was started. Just on the day of conducting the experiment, the artery cannula was connected with a blood-pressure transducer, and the average blood pressure was recorded by means of polygraph. Before administration of the drug, the pressor action due to intravenous administration of A II (100 ng/kg) as the control was measured. The drugs were orally administered, then, at each point of the measurement, A II was administered intravenously, and the pressor action was similarly measured. By comparing the pressor action before and after administration of the drug, the percent inhibition by the drug on A II-induced pressor action was evaluated.

From patent US6844443B2, “Benzimidazole derivatives, their production and use” (Takeda Pharmaceutical Company, Ltd., priority 1990, dated 2005) come the findings set out here.

Each structure is given as a SMILES string.

On to `CCOc1nc2cccc(C(=O)OC(C)OC(=O)OC3CCCCC3)c2n1Cc1ccc(-c2ccccc2-c2nnn[nH]2)cc1` (stereo not drawn) [C-type crystal], for which, in data set [1], the “heat stability of solid form” value was “stable by heat”. `CCNc1nc2cccc(C(=O)OCOC(=O)C(C)(C)C)c2n1Cc1ccc(-c2ccccc2-c2nnn[nH]2)cc1` [Example 62] had an inhibition at 1 µM in data set [2] (1 h, inhibition of 125I-A II binding, compound 1 × 10^−6M, bovine adrenal cortex membrane fraction) of 87%. The inhibition at 0.1 µM in data set [2] (1 h, read-out: Radioreceptor Assay 1 × 10^−7M) worked out at 48%. Also, the inhibition in vivo at 3 mg/kg in data set [3] (Rattus norvegicus, po, read-out: Pressor Response to A II (p.o.) 3 mg/kg) is at least 70%. In the case of `CCNc1nc2cccc(C(=O)OC(C)OC(=O)OC3CCCCC3)c2n1Cc1ccc(-c2ccccc2-c2nnn[nH]2)cc1` (stereo not drawn) [Example 63], the “Radioreceptor Assay 1 × 10^−6M” value in data set [2] (inhibition of 125I-A II binding, compound 1 × 10^−6M, bovine adrenal cortex membrane fraction) is listed as 61. Further, in data set [2] (inhibition of 125I-A II binding, compound 1 × 10^−7M, bovine adrenal cortex membrane fraction), the “Radioreceptor Assay 1 × 10^−7M” value came to 19. In addition, in data set [3] (percent inhibition of pressor action of i.v. A II (100 ng/kg), 3 mg/kg p.o., rats), the “Pressor Response to A II (p.o.) 3 mg/kg” value is listed as “+++ (+++ ≧ 70%)”.

`CCOc1nc2cccc(C(=O)OCc3oc(=O)oc3C)c2n1Cc1ccc(-c2ccccc2-c2nnn[nH]2)cc1` [Working Example 49, (5-Methyl-2-oxo-1,3-dioxolen-4-yl)methyl 2-ethoxy-1-[[2′-(1 H-tetrazol-5-yl)biphenyl-4-yl]methyl]benzimidazole-7-carboxylate]: the melting point was 122 to 125 °C (dec.). With `CCOc1nc2cccc(C(=O)OCOC(C)=O)c2n1Cc1ccc(-c2ccccc2-c2nnn[nH]2)cc1` [Working Example 50, Acetoxymethyl 2-ethoxy-1-[[2′-(1 H-tetrazol-5-yl)biphenyl-4-yl]methyl]benzimidazole-7-carboxylate], the melting point is 152 to 154 °C (dec.). `CCOc1nc2cccc(C(=O)OCOC(=O)CC)c2n1Cc1ccc(-c2ccccc2-c2nnn[nH]2)cc1` [Working Example 51, Propionyloxymethyl 2-ethoxy-1-[[2′-(1 H-tetrazol-5-yl)-biphenyl-4-yl]methyl]benzimidazole-7-carboxylate]: the melting point was 145 to 150 °C (dec.). In turn, `CCCC(=O)OCOC(=O)c1cccc2nc(OCC)n(Cc3ccc(-c4ccccc4-c4nnn[nH]4)cc3)c12` [Working Example 52, Butyryloxymethyl 2-ethoxy-1-[[2′-(1 H-tetrazol-5-yl)biphenyl-4-yl]methyl]benzimidazole-7-carboxylate] registered a melting point of 96 to 100 °C. On the same count and under the same terms, in the case of `CCOc1nc2cccc(C(=O)OCOC(=O)C(C)C)c2n1Cc1ccc(-c2ccccc2-c2nnn[nH]2)cc1` [Working Example 53, Isobutyryloxymethyl 2-ethoxy-1-[[2′-(1 H-tetrazol-5-yl)biphenyl-4-yl]methyl]benzimidazole-7-carboxylate] it was 143 to 145 °C; in that of `CCOC(=O)OC(C)OC(=O)c1cccc2nc(OCC)n(Cc3ccc(-c4ccccc4-c4nnn[nH]4)cc3)c12` (stereo not drawn) [Working Example 54, 1-(Ethoxycarbonyloxy)ethyl 2-ethoxy-1-[[2′-(1 H-tetrazol-5-yl)-biphenyl-4-yl]methyl]benzimidazole-7-carboxylate], 85 to 87 °C; in that of `CCOc1nc2cccc(C(=O)OC(C)OC(C)=O)c2n1Cc1ccc(-c2ccccc2-c2nnn[nH]2)cc1` (stereo not drawn) [Working Example 55, 1-Acetoxyethyl 2-ethoxy-1-[[2′-(1 H-tetrazol-5-yl)biphenyl-4-yl]methyl]benzimidazole-7-carboxylate], 105 to 107 °C.

For `CCOc1nc2cccc(C(=O)OC(C)OC(=O)OC(C)C)c2n1Cc1ccc(-c2ccccc2)c(-c2nnn[nH]2)c1` (stereo not drawn) [Working Example 56, 1-(Isopropoxycarbonyloxy)ethyl 2-ethoxy-1-[[2-(1 H-tetrazol-5-yl)biphenyl-4-yl]methyl]benzimidazole-7-carboxylate], the melting point was in the range of 74 to 76 °C. On the same count and under the same terms, in the case of `CCOc1nc2cccc(C(=O)OCOC(=O)C3CCCCC3)c2n1Cc1ccc(-c2ccccc2-c2nnn[nH]2)cc1` [Working Example 58, Cyclohexylcarbonyloxymethyl 2-ethoxy-1-[[2′-(1 H-tetrazol-5-yl)biphenyl-4-yl]methyl]benzimidazole-7-carboxylate] it was 140 to 142 °C; in that of `CCOc1nc2cccc(C(=O)OCOC(=O)/C=C/c3ccccc3)c2n1Cc1ccc(-c2ccccc2-c2nnn[nH]2)cc1` [Working Example 60, (E)-cinnamoyloxymethyl 2-ethoxy-1-[[2′-(1 H-tetrazol-5-yl)biphenyl-4-yl]methyl]benzimidazole-7-carboxylate], 146 to 147 °C; in that of `CCOc1nc2cccc(C(=O)OCOC(=O)C3CCCC3)c2n1Cc1ccc(-c2ccccc2-c2nnn[nH]2)cc1` [Working Example 61, Cyclopentylcarbonyloxymethyl 2-ethoxy-1-[[2′-(1 H-tetrazol-5-yl)biphenyl-4-yl]methyl]benzimidazole-7-carboxylate], 136 to 138 °C. Same read-out and setting: in the case of `CCNc1nc2cccc(C(=O)OCOC(=O)C(C)(C)C)c2n1Cc1ccc(-c2ccccc2-c2nnn[nH]2)cc1` [Working Example 62, Pivaloyloxymethyl 2-ethylamino-1-[[2′-(1 H-tetrazol-5-yl)biphenyl-4-yl]methyl]benzimidazole-7-carboxylate] it was 130 to 135 °C. Same read-out and setting: in the case of `CCNc1nc2cccc(C(=O)OC(C)OC(=O)OC3CCCCC3)c2n1Cc1ccc(-c2ccccc2-c2nnn[nH]2)cc1` (stereo not drawn) [Working Example 63, 1-(Cyclohexyloxycarbonyloxy)ethyl 2-ethylamino-1-[[2′-(1 H-tetrazol-5-yl)biphenyl-4-yl]methyl]benzimidazole-7-carboxylate] it was 149 to 152 °C. Take `CCOc1nc2cccc(C(=O)OC(C)OC(=O)OC3CCCCC3)c2n1Cc1ccc(-c2ccccc2-c2nnn[nH]2)cc1` (stereo not drawn) [amorphous powders, 1-(Cyclohexyloxycarbonyloxy)ethyl 2-ethoxy-1-[[2′-(1 H-tetrazol-5-yl)biphenyl-4-yl]methyl]benzimidazole-7-carboxylate]: the “heat stability of solid form” value in data set [1] was “unstable by heat”.
